Assay: Vasodilation activity against depolarization-induced contraction in anaesthetized white rabbit basilar artery at 10 uM
Format: functional, tissue-based
Conditions: Oryctolagus cuniculus

Structure (SMILES)	Activity [%]
COc1cc(/C=C/C(=O)c2cccc(NS(=O)(=O)c3ccc(OC(F)(F)F)cc3)c2)ccc1O	76.7
COc1cc(/C=C/C(=O)c2cccc(N)c2)ccc1O	8.3
COc1cc(/C=C/C(=O)c2cccc(NC(=O)C(C)C)c2)ccc1O	22.5
COc1cc(/C=C/C(=O)c2cccc(NS(C)(=O)=O)c2)ccc1O	4.2
COc1cc(/C=C/C(=O)c2cccc(NS(=O)(=O)c3c(Cl)cccc3Cl)c2)ccc1O	99.4
COc1cc(/C=C/C(=O)c2cccc(NS(=O)(=O)C(C)C)c2)ccc1O	8.4
COc1cc(/C=C/C(=O)c2cccc(NS(=O)(=O)c3ccc(Cl)cc3)c2)ccc1O	93.4
COc1ccc(S(=O)(=O)Nc2cccc(C(=O)/C=C/c3ccc(O)c(OC)c3)c2)cc1	26.4
COc1cc(/C=C/C(=O)c2cccc(NS(=O)(=O)c3ccccc3)c2)ccc1O	40.4
COc1cc(/C=C/C(=O)c2cccc(NS(=O)(=O)c3ccc(Cl)cc3Cl)c2)ccc1O	4.2
CCCS(=O)(=O)Nc1cccc(C(=O)/C=C/c2ccc(O)c(OC)c2)c1	42.3
COc1cc(/C=C/C(=O)c2cccc(NS(=O)(=O)c3cc(Cl)cc(Cl)c3)c2)ccc1O	37.3
COc1cc(/C=C/C(=O)c2cccc(NS(=O)(=O)c3cccc(C(F)(F)F)c3)c2)ccc1O	52.3
COc1cc(/C=C/C(=O)c2cccc(NC(=O)c3ccc(Cl)cc3Cl)c2)ccc1O	27.9
COc1cc(/C=C/C(=O)c2cccc(NS(=O)(=O)c3ccc(Cl)c(Cl)c3)c2)ccc1O	30.2
COc1cc(/C=C/C(=O)c2cccc(NC(C)=O)c2)ccc1O	20.6
COc1cc(/C=C/C(=O)CC(=O)/C=C/c2ccc(O)c(OC)c2)ccc1O [CURCUMIN]	58.4
COc1cc(/C=C/C(=O)c2cccc(NS(=O)(=O)c3ccc(C(F)(F)F)cc3)c2)ccc1O	65.8
CCCC(=O)Nc1cccc(C(=O)/C=C/c2ccc(O)c(OC)c2)c1	32.3
COc1cc(/C=C/C(=O)c2cccc(NC(=O)c3cccs3)c2)ccc1O	27.1
COc1cc(/C=C/C(=O)c2cccc(NS(=O)(=O)c3cccs3)c2)ccc1O	36.1
COc1cc(/C=C/C(=O)c2cccc(NC(=O)c3ccco3)c2)ccc1O	41.7
COc1cc(/C=C/C(=O)c2cccc(NS(=O)(=O)c3ccc(F)cc3)c2)ccc1O	71.8

Assay: Vasodilation activity against depolarization-induced contraction in anaesthetized white rabbit basilar artery
Format: functional, tissue-based, Oryctolagus cuniculus
Conditions: not given

Structure (SMILES)	EC50 [µM]
COc1cc(/C=C/C(=O)c2cccc(NS(=O)(=O)c3c(Cl)cccc3Cl)c2)ccc1O	2.78
COc1cc(/C=C/C(=O)c2cccc(NS(=O)(=O)c3ccc(Cl)cc3)c2)ccc1O	5.58
COc1cc(/C=C/C(=O)CC(=O)/C=C/c2ccc(O)c(OC)c2)ccc1O [CURCUMIN]	7.48
